Source: US5843889A, “Glycopeptide antibiotic derivatives” (Eli Lilly and Company, priority 1997, dated 1998)
Values after ≈ are worked out from the molar mass of the structure shown.

How the values were obtained:
Assay in all cases: MIC, standard broth micro-dilution assay
Assay type in all cases: cell-based
Entercoccus faecalis 276 = test system: Entercoccus faecalis 276
Experimental: (§1) The formula I compounds have in vitro and in vivo activity against Gram-positive pathogenic bacteria. The MIC's were determined using a standard broth micro-dilution assay.

[1] = test system: Entercoccus gallinarum 245
Experimental: as §1

[2] = test system: Entercoccus faecalis 2041
Experimental: as §1

SMILES | MIC (Entercoccus faecalis 276) | MIC [1] | MIC [2]
CNC(CC(C)C)C(=O)NC1C(=O)NC(CC(N)=O)C(=O)NC2C(=O)NC3C(=O)NC(C(=O)NC(C(=O)O)c4cc(O)cc(O)c4-c4cc3ccc4O)C(OC3CC(C)(N)C(O)C(C)O3)c3ccc(c(Cl)c3)Oc3cc2cc(c3OC2OC(CO)C(O)C(O)C2OC2CC(C)(NCc3c(OC)ccc4ccccc34)C(O)C(C)O2)Oc2ccc(cc2Cl)C1O (stereo not shown) [Compound 9, 2-methoxy-1-naphthylmethyl] | 0.26 µg/mL (≈ 0.148 µM) | – | –
CNC(CC(C)C)C(=O)NC1C(=O)NC(CC(N)=O)C(=O)NC2C(=O)NC3C(=O)NC(C(=O)NC(C(=O)O)c4cc(O)cc(O)c4-c4cc3ccc4O)C(OC3CC(C)(N)C(O)C(C)O3)c3ccc(c(Cl)c3)Oc3cc2cc(c3OC2OC(CO)C(O)C(O)C2OC2CC(C)(NCc3c4ccccc4cc4ccccc34)C(O)C(C)O2)Oc2ccc(cc2Cl)C1O (stereo not shown) [Compound 13, 9-anthranylmethyl] | 0.5 µg/mL (≈ 0.28 µM) | 0.25 µg/mL (≈ 0.14 µM) | –
CNC(CC(C)C)C(=O)NC1C(=O)NC(CC(N)=O)C(=O)NC2C(=O)NC3C(=O)NC(C(=O)NC(C(=O)O)c4cc(O)cc(O)c4-c4cc3ccc4O)C(OC3CC(C)(N)C(O)C(C)O3)c3ccc(c(Cl)c3)Oc3cc2cc(c3OC2OC(CO)C(O)C(O)C2OC2CC(C)(NCc3ccnc4ccccc34)C(O)C(C)O2)Oc2ccc(cc2Cl)C1O (stereo not shown) [Compound 27, 4-quinolylmethyl] | 0.5 µg/mL (≈ 0.288 µM) | 0.5 µg/mL (≈ 0.288 µM) | –
CNC(CC(C)C)C(=O)NC1C(=O)NC(CC(N)=O)C(=O)NC2C(=O)NC3C(=O)NC(C(=O)NC(C(=O)O)c4cc(O)cc(O)c4-c4cc3ccc4O)C(OC3CC(C)(N)C(O)C(C)O3)c3ccc(c(Cl)c3)Oc3cc2cc(c3OC2OC(CO)C(O)C(O)C2OC2CC(C)(NCCc3ccc(Oc4ccccc4)cc3)C(O)C(C)O2)Oc2ccc(cc2Cl)C1O (stereo not shown) [Compound 63, 4-phenoxyphenethyl] | 0.5 µg/mL (≈ 0.28 µM) | 8 µg/mL (≈ 4.47 µM) | –
CNC(CC(C)C)C(=O)NC1C(=O)NC(CC(N)=O)C(=O)NC2C(=O)NC3C(=O)NC(C(=O)NC(C(=O)O)c4cc(O)cc(O)c4-c4cc3ccc4O)C(OC3CC(C)(N)C(O)C(C)O3)c3ccc(c(Cl)c3)Oc3cc2cc(c3OC2OC(CO)C(O)C(O)C2OC2CC(C)(NCCc3cccc(OCc4ccccc4)c3)C(O)C(C)O2)Oc2ccc(cc2Cl)C1O (stereo not shown) [Compound 69, 3-benzyloxyphenethyl] | 0.5 µg/mL (≈ 0.277 µM) | 8 µg/mL (≈ 4.44 µM) | –
CNC(CC(C)C)C(=O)NC1C(=O)NC(CC(N)=O)C(=O)NC2C(=O)NC3C(=O)NC(C(=O)NC(C(=O)O)c4cc(O)cc(O)c4-c4cc3ccc4O)C(OC3CC(C)(N)C(O)C(C)O3)c3ccc(c(Cl)c3)Oc3cc2cc(c3OC2OC(CO)C(O)C(O)C2OC2CC(C)(NCc3ccc(Cl)c(C(=O)c4ccccc4)c3Cl)C(O)C(C)O2)Oc2ccc(cc2Cl)C1O (stereo not shown) [Compound 133, 3-benzoyl-2,4-dichlorobenzyl] | 1 µg/mL (≈ 0.539 µM) | 2 µg/mL (≈ 1.08 µM) | –
CNC(CC(C)C)C(=O)NC1C(=O)NC(CC(N)=O)C(=O)NC2C(=O)NC3C(=O)NC(C(=O)NC(C(=O)O)c4cc(O)cc(O)c4-c4cc3ccc4O)C(OC3CC(C)(N)C(O)C(C)O3)c3ccc(c(Cl)c3)Oc3cc2cc(c3OC2OC(CO)C(O)C(O)C2OC2CC(C)(NCc3ccc(OCCOC(C)(C)C)cc3)C(O)C(C)O2)Oc2ccc(cc2Cl)C1O (stereo not shown) [Compound 154, 4-[2-t-butoxyethoxy]benzyl] | 0.5 µg/mL (≈ 0.278 µM) | 4 µg/mL (≈ 2.22 µM) | –
CNC(CC(C)C)C(=O)NC1C(=O)NC(CC(N)=O)C(=O)NC2C(=O)NC3C(=O)NC(C(=O)NC(C(=O)O)c4cc(O)cc(O)c4-c4cc3ccc4O)C(OC3CC(C)(N)C(O)C(C)O3)c3ccc(c(Cl)c3)Oc3cc2cc(c3OC2OC(CO)C(O)C(O)C2OC2CC(C)(NCCCC3CCCC3)C(O)C(C)O2)Oc2ccc(cc2Cl)C1O (stereo not shown) [Compound 208, 3-[cyclopentyl]propyl] | – | 2 µg/mL (≈ 1.17 µM) | ≤ 0.06 µg/mL
CNC(CC(C)C)C(=O)NC1C(=O)NC(CC(N)=O)C(=O)NC2C(=O)NC3C(=O)NC(C(=O)NC(C(=O)O)c4cc(O)cc(O)c4-c4cc3ccc4O)C(OC3CC(C)(N)C(O)C(C)O3)c3ccc(c(Cl)c3)Oc3cc2cc(c3OC2OC(CO)C(O)C(O)C2OC2CC(C)(NCc3ccc(-c4ccc(OC)c(OC)c4)cc3)C(O)C(C)O2)Oc2ccc(cc2Cl)C1O (stereo not shown) [Compound 215, 4-[3,4-dimethoxyphenyl]benzyl] | 2 µg/mL (≈ 1.1 µM) | – | –
CNC(CC(C)C)C(=O)NC1C(=O)NC(CC(N)=O)C(=O)NC2C(=O)NC3C(=O)NC(C(=O)NC(C(=O)O)c4cc(O)cc(O)c4-c4cc3ccc4O)C(OC3CC(C)(N)C(O)C(C)O3)c3ccc(c(Cl)c3)Oc3cc2cc(c3OC2OC(CO)C(O)C(O)C2OC2CC(C)(NCc3ccc(OCCCc4ccccc4)cc3)C(O)C(C)O2)Oc2ccc(cc2Cl)C1O (stereo not shown) [Compound 223, 4-[3-phenylpropyloxy]benzyl] | – | 1 µg/mL (≈ 0.55 µM) | ≤ 0.06 µg/mL
CC#CCCCCCCCCCCOc1ccc(CNC2(C)CC(OC3C(Oc4c5cc6cc4Oc4ccc(cc4Cl)C(OC4CC(C)(N)C(O)C(C)O4)C4NC(=O)C(NC(=O)C6NC(=O)C(CC(N)=O)NC(=O)C(NC(=O)C(CC(C)C)NC)C(O)c6ccc(c(Cl)c6)O5)c5ccc(O)c(c5)-c5c(O)cc(O)cc5C(C(=O)O)NC4=O)OC(CO)C(O)C3O)OC(C)C2O)cc1 (stereo not shown) [Compound 233, 4-[11-tridecynyloxy]benzyl] | 8 µg/mL (≈ 4.26 µM) | – | –
CNC(CC(C)C)C(=O)NC1C(=O)NC(CC(N)=O)C(=O)NC2C(=O)NC3C(=O)NC(C(=O)NC(C(=O)O)c4cc(O)cc(O)c4-c4cc3ccc4O)C(OC3CC(C)(N)C(O)C(C)O3)c3ccc(c(Cl)c3)Oc3cc2cc(c3OC2OC(CO)C(O)C(O)C2OC2CC(C)(NCCCCC#Cc3ccccc3)C(O)C(C)O2)Oc2ccc(cc2Cl)C1O (stereo not shown) [Compound 235, 6-phenyl-5-hexynyl] | – | 1 µg/mL (≈ 0.572 µM) | ≤ 0.06 µg/mL
CNC(CC(C)C)C(=O)NC1C(=O)NC(CC(N)=O)C(=O)NC2C(=O)NC3C(=O)NC(C(=O)NC(C(=O)O)c4cc(O)cc(O)c4-c4cc3ccc4O)C(OC3CC(C)(N)C(O)C(C)O3)c3ccc(c(Cl)c3)Oc3cc2cc(c3OC2OC(CO)C(O)C(O)C2OC2CC(C)(NCC3CCC(COCc4ccccc4)CC3)C(O)C(C)O2)Oc2ccc(cc2Cl)C1O (stereo not shown) [Compound 239] | – | 1 µg/mL (≈ 0.553 µM) | ≤ 0.06 µg/mL

Results, then the compound that gave them:

MIC (Entercoccus faecalis 276) | MIC [1] | MIC [2] | SMILES
≤ 0.06 µg/mL | – | – | CNC(CC(C)C)C(=O)NC1C(=O)NC(CC(N)=O)C(=O)NC2C(=O)NC3C(=O)NC(C(=O)NC(C(=O)O)c4cc(O)cc(O)c4-c4cc3ccc4O)C(OC3CC(C)(N)C(O)C(C)O3)c3ccc(c(Cl)c3)Oc3cc2cc(c3OC2OC(CO)C(O)C(O)C2OC2CC(C)(NCc3ccncc3)C(O)C(C)O2)Oc2ccc(cc2Cl)C1O (stereo not shown) [Compound 26, 4-pyridylmethyl]
1 µg/mL (≈ 0.571 µM) | – | – | CNC(CC(C)C)C(=O)NC1C(=O)NC(CC(N)=O)C(=O)NC2C(=O)NC3C(=O)NC(C(=O)NC(C(=O)O)c4cc(O)cc(O)c4-c4cc3ccc4O)C(OC3CC(C)(N)C(O)C(C)O3)c3ccc(c(Cl)c3)Oc3cc2cc(c3OC2OC(CO)C(O)C(O)C2OC2CC(C)(NCc3ccc(C(F)(F)F)cc3)C(O)C(C)O2)Oc2ccc(cc2Cl)C1O (stereo not shown) [Compound 37, 4-trifluoromethylbenzyl]
0.5 µg/mL (≈ 0.283 µM) | – | – | CNC(CC(C)C)C(=O)NC1C(=O)NC(CC(N)=O)C(=O)NC2C(=O)NC3C(=O)NC(C(=O)NC(C(=O)O)c4cc(O)cc(O)c4-c4cc3ccc4O)C(OC3CC(C)(N)C(O)C(C)O3)c3ccc(c(Cl)c3)Oc3cc2cc(c3OC2OC(CO)C(O)C(O)C2OC2CC(C)(NCc3ccc(OCCCC#N)cc3)C(O)C(C)O2)Oc2ccc(cc2Cl)C1O (stereo not shown) [Compound 55, 4-[3-cyanopropoxy]benzyl]
2 µg/mL (≈ 1.12 µM) | 2 µg/mL (≈ 1.12 µM) | – | CCc1ccc(-c2ccc(CNC3(C)CC(OC4C(Oc5c6cc7cc5Oc5ccc(cc5Cl)C(OC5CC(C)(N)C(O)C(C)O5)C5NC(=O)C(NC(=O)C7NC(=O)C(CC(N)=O)NC(=O)C(NC(=O)C(CC(C)C)NC)C(O)c7ccc(c(Cl)c7)O6)c6ccc(O)c(c6)-c6c(O)cc(O)cc6C(C(=O)O)NC5=O)OC(CO)C(O)C4O)OC(C)C3O)cc2)cc1 (stereo not shown) [Compound 90, 4-[4-ethylphenyl]benzyl]
0.5 µg/mL (≈ 0.281 µM) | 2 µg/mL (≈ 1.12 µM) | – | CNC(CC(C)C)C(=O)NC1C(=O)NC(CC(N)=O)C(=O)NC2C(=O)NC3C(=O)NC(C(=O)NC(C(=O)O)c4cc(O)cc(O)c4-c4cc3ccc4O)C(OC3CC(C)(N)C(O)C(C)O3)c3ccc(c(Cl)c3)Oc3cc2cc(c3OC2OC(CO)C(O)C(O)C2OC2CC(C)(NCc3ccc(N4CCCCC4C)cc3)C(O)C(C)O2)Oc2ccc(cc2Cl)C1O (stereo not shown) [Compound 135, 4-[2-methyl-1-piperidino]benzyl]
0.5 µg/mL (≈ 0.274 µM) | – | – | CNC(CC(C)C)C(=O)NC1C(=O)NC(CC(N)=O)C(=O)NC2C(=O)NC3C(=O)NC(C(=O)NC(C(=O)O)c4cc(O)cc(O)c4-c4cc3ccc4O)C(OC3CC(C)(N)C(O)C(C)O3)c3ccc(c(Cl)c3)Oc3cc2cc(c3OC2OC(CO)C(O)C(O)C2OC2CC(C)(NCc3ccc(-c4ccc(C(F)(F)F)cc4)cc3)C(O)C(C)O2)Oc2ccc(cc2Cl)C1O (stereo not shown) [Compound 216, 4-[4-trifluromethylphenyl]benzyl]
– | 0.5 µg/mL (≈ 0.28 µM) | ≤ 0.06 µg/mL | CNC(CC(C)C)C(=O)NC1C(=O)NC(CC(N)=O)C(=O)NC2C(=O)NC3C(=O)NC(C(=O)NC(C(=O)O)c4cc(O)cc(O)c4-c4cc3ccc4O)C(OC3CC(C)(N)C(O)C(C)O3)c3ccc(c(Cl)c3)Oc3cc2cc(c3OC2OC(CO)C(O)C(O)C2OC2CC(C)(NCc3ccc4c(c3)CCc3ccccc3-4)C(O)C(C)O2)Oc2ccc(cc2Cl)C1O (stereo not shown) [Compound 220]
– | 2 µg/mL (≈ 1.12 µM) | ≤ 0.06 µg/mL | CNC(CC(C)C)C(=O)NC1C(=O)NC(CC(N)=O)C(=O)NC2C(=O)NC3C(=O)NC(C(=O)NC(C(=O)O)c4cc(O)cc(O)c4-c4cc3ccc4O)C(OC3CC(C)(N)C(O)C(C)O3)c3ccc(c(Cl)c3)Oc3cc2cc(c3OC2OC(CO)C(O)C(O)C2OC2CC(C)(NCc3ccc(-c4ccc(C)c(C)c4)cc3)C(O)C(C)O2)Oc2ccc(cc2Cl)C1O (stereo not shown) [Compound 221, 4-[3,4-dimethylphenyl]benzyl]
– | 1 µg/mL (≈ 0.566 µM) | ≤ 0.06 µg/mL | C=CCCCOc1ccc(CNC2(C)CC(OC3C(Oc4c5cc6cc4Oc4ccc(cc4Cl)C(OC4CC(C)(N)C(O)C(C)O4)C4NC(=O)C(NC(=O)C6NC(=O)C(CC(N)=O)NC(=O)C(NC(=O)C(CC(C)C)NC)C(O)c6ccc(c(Cl)c6)O5)c5ccc(O)c(c5)-c5c(O)cc(O)cc5C(C(=O)O)NC4=O)OC(CO)C(O)C3O)OC(C)C2O)cc1 (stereo not shown) [Compound 226, 4-[4-pentenyloxy]benzyl]
